{"source": "paper PMC3787104", "about": "“A Purine Analog Synergizes with Chloroquine (CQ) by Targeting Plasmodium falciparum Hsp90 (PfHsp90)” (PLoS ONE, 2013)", "key": {"[1]": {"molecular_target": "T1, P. falciparum Hsp90 (PfHsp90, PF07_0029) (Plasmodium falciparum, UniProt Q8IC05)", "experiment": "SPR (Biacore X), positive control; also full-length ATPase inhibition, […]", "assay_type": "binding", "parameters": "gene PF3D7_0708400; full length also tested in ATPase assay"}, "[2]": {"molecular_target": "T1, P. falciparum Hsp90 (PfHsp90, PF07_0029)", "experiment": "coupled LDH/NADH ATPase assay, positive control", "assay_type": "biochemical", "parameters": "gene PF3D7_0708400; full-length PfHsp90"}}, "data": [{"smiles": "C=CCNC1=C2C[C@@H](C)C[C@H](OC)[C@H](O)[C@@H](C)/C=C(\\C)[C@H](OC(N)=O)[C@@H](OC)/C=C\\C=C(/C)C(=O)NC(=CC1=O)C2=O", "note": "[17-AAG]", "values": [{"measurement": "Kd", "setting": "[1]", "result": "105 ± 0.33", "unit": "µM"}]}, {"smiles": "C[C@@H]1C[C@H]2O[C@@H]2/C=C\\C=C\\C(=O)Cc2c(Cl)c(O)cc(O)c2C(=O)O1", "note": "[radicicol]", "values": [{"measurement": "IC50", "setting": "[2]", "result": 0.144, "unit": "µM"}]}]}
